What was measured:
Rattus norvegicus [1] = organism: Rattus norvegicus; experiment: Relative affinities for rat Adenosine A1 and Adenosine A2B receptors
[2] = biological target: T1, Adenosine receptor A1 (Rattus norvegicus) (UniProt P25099); experiment: Percent displacement of [3H]-R-PIA from rat Adenosine A1 receptor in HEK293 cells; format: cell-based
T1 sequence (whole entry): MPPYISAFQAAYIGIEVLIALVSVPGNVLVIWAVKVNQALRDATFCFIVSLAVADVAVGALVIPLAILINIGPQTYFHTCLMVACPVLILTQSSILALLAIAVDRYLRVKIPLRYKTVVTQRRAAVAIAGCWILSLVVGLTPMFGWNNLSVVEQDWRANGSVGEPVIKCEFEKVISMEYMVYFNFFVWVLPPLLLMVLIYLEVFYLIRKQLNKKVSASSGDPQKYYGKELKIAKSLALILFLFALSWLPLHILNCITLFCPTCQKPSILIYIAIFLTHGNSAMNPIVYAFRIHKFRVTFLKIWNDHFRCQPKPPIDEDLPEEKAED

Rattus norvegicus [3] = organism: Rattus norvegicus; experiment: Relative affinities for rat Adenosine A2A and Adenosine A2B receptors
Adenosine receptor A2b [4] = biological target: T2, Adenosine receptor A2b (Homo sapiens, UniProt P29275); experiment: Binding affinity at human Adenosine A2B receptor expressed in HEK293 cells, using [125I]ABOPX as radioligand; format: cell-based
T2 sequence (P29275 whole entry): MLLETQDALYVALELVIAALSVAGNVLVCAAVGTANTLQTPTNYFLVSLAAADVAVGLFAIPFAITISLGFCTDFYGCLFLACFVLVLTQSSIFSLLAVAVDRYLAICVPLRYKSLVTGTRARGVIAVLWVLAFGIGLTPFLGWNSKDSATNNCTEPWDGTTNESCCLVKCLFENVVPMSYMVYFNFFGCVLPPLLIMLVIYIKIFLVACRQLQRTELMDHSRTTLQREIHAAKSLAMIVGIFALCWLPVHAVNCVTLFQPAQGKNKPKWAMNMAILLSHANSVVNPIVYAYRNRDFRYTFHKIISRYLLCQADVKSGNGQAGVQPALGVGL

Adenosine receptor A2b [5] = biological target: T3, Adenosine receptor A2b (Rattus norvegicus, UniProt P29276); experiment: Inhibition of […] binding to rat Adenosine A2B receptor expressed in HEK cells; format: cell-based, HEK293
T3 sequence (P29276 whole entry): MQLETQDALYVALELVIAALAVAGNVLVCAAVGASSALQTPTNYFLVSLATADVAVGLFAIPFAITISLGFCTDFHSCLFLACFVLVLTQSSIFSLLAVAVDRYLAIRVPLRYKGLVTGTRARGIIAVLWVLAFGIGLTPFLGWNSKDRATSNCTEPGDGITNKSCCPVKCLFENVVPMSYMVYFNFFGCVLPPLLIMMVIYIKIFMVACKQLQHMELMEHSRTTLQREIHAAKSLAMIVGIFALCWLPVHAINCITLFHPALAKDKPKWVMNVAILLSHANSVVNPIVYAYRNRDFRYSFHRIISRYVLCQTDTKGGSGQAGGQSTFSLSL

Adenosine receptor A2a = Adenosine receptor A2a (Rattus norvegicus, UniProt P30543); experiment: Binding affinity at rat Adenosine A2A receptor by [3H]-CGS- 21680 displacement.
Adenosine receptor A2a, sequence (P30543 whole entry): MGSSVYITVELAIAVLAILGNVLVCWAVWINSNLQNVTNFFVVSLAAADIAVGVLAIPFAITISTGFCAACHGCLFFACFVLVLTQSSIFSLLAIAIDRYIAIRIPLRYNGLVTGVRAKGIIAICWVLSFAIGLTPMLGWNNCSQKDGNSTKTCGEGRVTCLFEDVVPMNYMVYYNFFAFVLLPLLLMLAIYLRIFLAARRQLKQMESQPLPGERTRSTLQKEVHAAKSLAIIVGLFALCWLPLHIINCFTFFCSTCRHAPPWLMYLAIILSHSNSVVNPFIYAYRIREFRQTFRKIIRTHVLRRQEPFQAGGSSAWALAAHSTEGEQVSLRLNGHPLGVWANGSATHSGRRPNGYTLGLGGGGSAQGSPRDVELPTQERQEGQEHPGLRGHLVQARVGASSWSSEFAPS

Adenosine receptor A1 = biological target: T4, Adenosine receptor A1 (Rattus norvegicus, UniProt P25099); experiment: Binding affinity of [3H]R-PIA for rat Adenosine A1 receptor in HEK293 cells
T4 sequence (P25099 whole entry): T1 sequence (whole entry)

Adenosine receptor A3 = biological target: T5, Adenosine receptor A3 (Homo sapiens, UniProt P0DMS8); experiment: Inhibition of [125I]I-AB-MECA binding to human Adenosine A3 receptor
T5 sequence (P0DMS8 whole entry): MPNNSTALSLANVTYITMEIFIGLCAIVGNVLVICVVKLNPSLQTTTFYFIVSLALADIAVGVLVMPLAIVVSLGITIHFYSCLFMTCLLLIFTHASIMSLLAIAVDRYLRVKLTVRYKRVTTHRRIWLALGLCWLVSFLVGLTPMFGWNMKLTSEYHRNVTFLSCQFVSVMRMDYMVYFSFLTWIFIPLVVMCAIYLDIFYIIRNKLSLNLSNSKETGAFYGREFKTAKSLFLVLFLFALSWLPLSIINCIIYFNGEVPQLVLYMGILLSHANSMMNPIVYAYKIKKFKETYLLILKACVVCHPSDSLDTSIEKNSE

SMILES | Ratio (Rattus norvegicus [1]) | Displacement [2] [%] | Ratio (Rattus norvegicus [3]) | Ki (Adenosine receptor A2b [4]) [nM] | Ki (Adenosine receptor A2b [5]) [nM] | Ki (Adenosine receptor A2a) [nM] | Ki (Adenosine receptor A1) [nM] | Ki (Adenosine receptor A3) [nM]
C=CCn1c(=O)c2c(nc(-c3ccccc3)n2CCCl)n(C)c1=O | > 6 | 35 | 2.1 | 311 | 1700 | 3570 |  | 
CCCn1c(=O)[nH]c2nc[nH]c2c1=O |  |  |  | 360 | 1880 |  | 3310 | 2370

Reference: ChEMBL document CHEMBL1135414, “Structure-activity relationships at human and rat A2B adenosine receptors of xanthine derivatives substituted at the 1-, 3-, 7-, and 8-positions” (J Med Chem, 2002)
